Among the test systems are HOP-92; HT-29; K562; KM12; LOX IMVI; MOLT-4; NCI-H226; NCI-H460; RXF 393; SF-295; SK-MEL-5; SK-OV-3; SN12C; SNB-75; SW-620; U-251; EKVX; HL-60; HOP-62; SF-539.
Experiment in all cases: NCI tumour cell line growth inhibition, 48 h

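The compound was tested at five concentrations on cells cultured in 96-well plates, with a 48-hour exposure period. GI50: concentration for 50% inhibition of growth.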 The source made the active and inactive calls. Rule as the data show it: active = GI50 up to about 1.1 µM and inactive = higher.

`Nc1c(Br)cc2c(c1Br)Cc1cc(Br)ccc1-2`: the GI50 in the experiment with HOP-92, in the experiment on HT-29, with K562, in the experiment on KM12, with LOX IMVI and in the experiment with MOLT-4 was > 100 µM (inactive) each time. For the same molecule, the GI50 in the experiment on NCI-H226, in the experiment with NCI-H460, in the experiment with RXF 393, in the experiment on SF-295, in the experiment with SK-MEL-5 and with SK-OV-3 was > 100 µM (inactive) throughout. Further, the GI50 in the experiment with SN12C, with SNB-75, with SW-620 and in the experiment on U-251 was > 100 µM (inactive) throughout.

On to `Nc1nc(=O)n(CC(O)CO)s1` (stereo not drawn), for which the GI50 with EKVX, in the experiment on HL-60, in the experiment on HOP-62, in the experiment with HT-29, in the experiment with K562 and in the experiment with LOX IMVI was > 100 µM (inactive) throughout. The GI50 in the experiment with MOLT-4, with NCI-H226, in the experiment on NCI-H460, with RXF 393, in the experiment with SF-295 and in the experiment on SF-539 was > 100 µM (inactive) throughout. In addition, the GI50 in the experiment with SK-MEL-5, in the experiment on SN12C, with SNB-75, in the experiment with SW-620 and in the experiment on U-251 was > 100 µM (inactive) in each case.

As to `COc1ccc(-c2cc(-c3ccccc3)c(C#N)c(=O)n2C2OC(CO)C(O)C(O)C2O)cc1` (stereo not drawn), the GI50 in the experiment with EKVX, in the experiment on HL-60, with HOP-62, with HT-29, in the experiment with K562 and in the experiment on KM12 was > 100 µM (inactive) throughout. Also, the GI50 in the experiment on LOX IMVI, in the experiment on MOLT-4, in the experiment on NCI-H226, in the experiment with NCI-H460, with RXF 393 and in the experiment on SF-295 was > 100 µM (inactive) in each case. Also, the GI50 with SF-539, in the experiment with SK-MEL-5, with SK-OV-3, with SN12C, in the experiment on SW-620 and in the experiment on U-251 was > 100 µM (inactive) each time.

Consider `Nc1ncnc2c1sc1nc3ccccc3n12`, for which the GI50 was 35.1 µM (inactive) in the experiment with EKVX; > 70.1 µM (inactive) with HOP-62; > 100 µM (inactive) in the experiment on HOP-92; > 70.8 µM (inactive) in the experiment with HT-29; > 100 µM (inactive) in the experiment on K562; > 45 µM (inactive) in the experiment with KM12. Besides, the GI50 was 4.13 µM (inactive) in the experiment on LOX IMVI; 11.8 µM (inactive) in the experiment on MOLT-4; 51.1 µM (inactive) with NCI-H226; 53.1 µM (inactive) in the experiment with NCI-H460; 12.8 µM (inactive) with RXF 393; > 56.2 µM (inactive) in the experiment on SF-295. For the same molecule, the GI50 with SF-539 was 20.4 µM (inactive); in the experiment on SK-MEL-5, 52 µM (inactive); in the experiment with SK-OV-3, 12.5 µM (inactive); with SN12C it was > 100 µM (inactive); in the experiment on SW-620 it was > 100 µM (inactive); in the experiment with U-251 it was 53.1 µM (inactive).

In the case of `Cc1cnc(SCCN2CCN(C)CC2)nc1-c1cc2ccccc2s1`, the GI50 was 0.155 µM (active) in the experiment on HOP-62; 5.53 µM (inactive) in the experiment with HOP-92; 6.03 µM (inactive) in the experiment on HT-29; 16.3 µM (inactive) in the experiment with KM12; 5.09 µM (inactive) in the experiment with LOX IMVI; 2.52 µM (inactive) in the experiment on MOLT-4. The GI50 was 11.9 µM (inactive) in the experiment with NCI-H226; 3.51 µM (inactive) in the experiment on NCI-H460; 10.1 µM (inactive) in the experiment with RXF 393; 9.14 µM (inactive) in the experiment with SF-295; 12.6 µM (inactive) in the experiment with SF-539; 3.46 µM (inactive) in the experiment with SK-MEL-5. Besides, the GI50 with SK-OV-3 is 3.77 µM (inactive); with SN12C, 9.02 µM (inactive); in the experiment on SNB-75, 12.2 µM (inactive); with SW-620, 11.9 µM (inactive); in the experiment with U-251 it was 8.36 µM (inactive).

Turning to `CCSc1nc(N)c2c(-c3ccccc3)c3c(nc2n1)CCC3`, the GI50 in the experiment on EKVX, with HL-60, in the experiment on HOP-62, in the experiment on K562, with KM12 and in the experiment on LOX IMVI was > 100 µM (inactive) throughout. Besides, the GI50 in the experiment with MOLT-4 was > 100 µM (inactive); with NCI-H460, > 100 µM (inactive); in the experiment with RXF 393, > 100 µM (inactive); in the experiment on SF-295, > 100 µM (inactive); in the experiment on SF-539, 6.53 µM (inactive); with SK-MEL-5, > 100 µM (inactive). For the same molecule, the GI50 in the experiment with SK-OV-3, with SN12C, with SNB-75, in the experiment on SW-620 and with U-251 was > 100 µM (inactive) each time.

Consider `COc1ccc(-c2c(C#N)c(N)nc3c2CCS(=O)(=O)c2ccccc2-3)cc1`, for which the GI50 in the experiment with HL-60, in the experiment on HOP-92, in the experiment on HT-29, in the experiment with K562, with KM12 and in the experiment on LOX IMVI was > 100 µM (inactive) each time. Besides, the GI50 was > 100 µM (inactive) with NCI-H226; > 100 µM (inactive) in the experiment with NCI-H460; > 100 µM (inactive) in the experiment on SK-MEL-5; > 100 µM (inactive) in the experiment on SN12C; 38.5 µM (inactive) with SNB-75; > 100 µM (inactive) with SW-620. In addition, in the experiment on U-251, the GI50 is > 100 µM (inactive).

Consider `CCOC(=O)[C@H]1Nc2c(cccc2[N+](=O)[O-])[C@H]2OCC[C@@H]12`, for which the GI50 in the experiment on EKVX, in the experiment on HOP-62, in the experiment on HT-29, with K562, with KM12 and in the experiment on LOX IMVI was > 100 µM (inactive) in each case. For the same molecule, the GI50 in the experiment on MOLT-4, in the experiment with NCI-H226, in the experiment with NCI-H460, in the experiment with RXF 393, in the experiment on SF-295 and with SF-539 was > 100 µM (inactive) each time. Besides, the GI50 in the experiment on SK-MEL-5, with SN12C, in the experiment on SNB-75, with SW-620 and with U-251 was > 100 µM (inactive) each time.

Take `Cc1cccc(C)c1NC(=S)N/C=C(\C#N)C(N)=O`: the GI50 in the experiment with EKVX, with HOP-62, with HOP-92, in the experiment with HT-29, in the experiment on K562 and with KM12 was > 100 µM (inactive) each time. The GI50 with LOX IMVI, with MOLT-4, with NCI-H226, with NCI-H460, in the experiment with RXF 393 and in the experiment on SF-295 was > 100 µM (inactive) in each case. The GI50 with SF-539, in the experiment on SK-MEL-5, in the experiment with SK-OV-3, with SN12C, in the experiment with SW-620 and in the experiment on U-251 was > 100 µM (inactive) each time.

Turning to `CC(C)(C)[Si](C)(C)OCCOCn1cc(F)c(=O)[nH]c1=O`, the GI50 in the experiment with EKVX, with HL-60, in the experiment with HOP-62, in the experiment with HT-29, in the experiment on K562 and with KM12 was > 100 µM (inactive) throughout. In addition, the GI50 in the experiment on LOX IMVI, in the experiment on MOLT-4, in the experiment on NCI-H226, in the experiment with NCI-H460, in the experiment on RXF 393 and with SF-295 was > 100 µM (inactive) in each case. The GI50 with SF-539, with SK-MEL-5, in the experiment with SK-OV-3, in the experiment with SN12C, in the experiment on SNB-75 and in the experiment on SW-620 was > 100 µM (inactive) throughout. The GI50 with U-251 was > 100 µM (inactive).

Regarding `O=C1CC(=O)N(c2ccccc2)N1/C(=C/c1ccccc1)c1ccccc1`, the GI50 is 37.6 µM (inactive) with EKVX; 18.5 µM (inactive) with HOP-62; 13.2 µM (inactive) in the experiment on HOP-92; 20 µM (inactive) with HT-29; 1.54 µM (inactive) with K562; 25.6 µM (inactive) in the experiment on KM12. Besides, the GI50 with LOX IMVI is 1.6 µM (inactive); in the experiment with MOLT-4 it was 1.58 µM (inactive); in the experiment on NCI-H226, 21.9 µM (inactive); with NCI-H460, 19.8 µM (inactive); with RXF 393, 16.7 µM (inactive); in the experiment on SF-295, 17.3 µM (inactive). The GI50 was 14.5 µM (inactive) in the experiment with SK-MEL-5; 25.6 µM (inactive) in the experiment with SK-OV-3; 20.5 µM (inactive) with SN12C; 22 µM (inactive) in the experiment with SNB-75; 17.3 µM (inactive) in the experiment with SW-620; 14.3 µM (inactive) with U-251.

`CC1CN=C(Nc2cccc(C(F)(F)F)c2)S1` (stereo not drawn): the GI50 was 34.1 µM (inactive) in the experiment on EKVX; 20.7 µM (inactive) in the experiment with HL-60; 95.3 µM (inactive) with HOP-62; 78.7 µM (inactive) with HT-29; 30.4 µM (inactive) in the experiment with K562; 81.5 µM (inactive) in the experiment on KM12. Besides, the GI50 in the experiment on LOX IMVI is 43.5 µM (inactive); in the experiment with MOLT-4 it was 25.4 µM (inactive); with NCI-H226, 79.3 µM (inactive); in the experiment with NCI-H460, 52.8 µM (inactive); with RXF 393, 42.9 µM (inactive); in the experiment with SF-539, > 100 µM (inactive). The GI50 in the experiment with SK-OV-3 was 94.4 µM (inactive); in the experiment with SNB-75, 88.1 µM (inactive); in the experiment with U-251, 54.7 µM (inactive).

For the origin of these results see ChEMBL document CHEMBL1201862, “PubChem BioAssay data set” (2004).
